2 compounds from patent US4459291A, “Compounds having antibiotic activity, processes for their preparation, pharmaceutical compositions containing them and their use as medicaments” (priority 1981, dated 1984) can be followed below.

Values after ≈ are worked out from the molar mass of the structure shown. “Also recorded” adds a separate entry of the source. Read-outs that look alike come from different tables or passages of the source.

Series [1] deals with Bacillus subtilis No. 10707. Briefly: Antibacterial activity by agar dilution method at pH 7.0. It is filed as cell-based. A general note: In agar dilution the substance is mixed into plates at graded concentrations.
The test system of the next series is Escherichia coli ATCC 26. Described as above. It is filed as cell-based.
The next series can be described thus: Solubility. The following applies: solvents named in the value.
The nature of another series: LD50 (acute toxicity). The following applies: in vivo.
Series [2] relates to Salmonella typhosa ATCC 9992. Briefly: Antibacterial activity by agar dilution method at pH 7.0. It is filed as cell-based. The following applies: Salmonella enterica.
Series [3] relates to Staphylococcus aureus ATCC 6538P. The description is as above. It counts as cell-based. The following applies: ATCC6538P.
Series [4] has as its system Klebsiella pneumoniae ATCC 10031. The series is described as above. It is filed as cell-based.

The LD50 is the dose expected to kill half of the subjects tested. A high value points to a less toxic substance. As to `COc1c2c(c(O)c3c4c(c(C)cc13)C1OC3(C(OC)OC)OC1C(O)(O4)C31CO1)C(=O)C(O)CC2OC1CC(C)(O)C(OC(C)=O)C(C)O1` (stereo not shown) [DC-45-A1], the MIC in series [1] (Bacillus subtilis, NO.10707, pH 7, read-out: Minimum Inhibitory Concentration) came out at 0.04 µg/mL (≈ 0.0568 µM); in the series with Escherichia coli ATCC 26 (Escherichia coli, ATCC26, pH 7, read-out: Minimum Inhibitory Concentration), 12 µg/mL (≈ 17 µM); in series [2] (pH 7, read-out: Minimum Inhibitory Concentration), 50 µg/mL (≈ 71 µM); in series [3] (Staphylococcus aureus, pH 7, read-out: Minimum Inhibitory Concentration), 0.4 µg/mL (≈ 0.568 µM); in series [4] (Klebsiella pneumoniae, ATCC10031, pH 7, read-out: Minimum Inhibitory Concentration), 0.4 µg/mL (≈ 0.568 µM). In addition, the Solubility entry in the series “Solubility” is “Soluble in methanol, ethanol, acetone, ethyl acetate and chloroform; also recorded: soluble with difficulty in benzene and aqueous ether; also recorded: insoluble in n-hexane”. In addition, the LD50 in the series “LD50 (acute toxicity)” (ip) and in “LD50 (acute toxicity)” (iv) was 0.375 mg/kg in each case.

For `COc1c2c(c(O)c3c4c(c(C)cc13)C1OC3(C(OC)OC)OC1C(O)(O4)C31CO1)C(=O)C(O)CC2O` (stereo not shown) [DC-45-A2], the MIC in series [1] (Bacillus subtilis No. 10707, agar dilution, pH 7.0, read-out: Minimum Inhibitory Concentration) was found to be 100 µg/mL (≈ 193 µM); in the series on Escherichia coli ATCC 26 (ATCC26, Escherichia coli ATCC 26, agar dilution, pH 7.0, read-out: Minimum Inhibitory Concentration), 25 µg/mL (≈ 48.2 µM); in series [2] (Salmonella typhosa ATCC 9992, agar dilution, pH 7.0, read-out: Minimum Inhibitory Concentration) it was 50 µg/mL (≈ 96.4 µM); in series [3] (Staphylococcus aureus ATCC 6538P, agar dilution, pH 7.0, read-out: Minimum Inhibitory Concentration), 100 µg/mL (≈ 193 µM); in series [4] (ATCC10031, Klebsiella pneumoniae ATCC 10031, agar dilution, pH 7.0, read-out: Minimum Inhibitory Concentration), 12 µg/mL (≈ 23.1 µM). In “Solubility”, the Solubility entry was “Soluble in methanol, ethanol, acetone, ethyl acetate and chloroform; also recorded: soluble with difficulty in benzene, ether and water; also recorded: insoluble in n-hexane”. The LD50 in “LD50 (acute toxicity)” (ip) is 5.8 mg/kg; in the series “LD50 (acute toxicity)” (iv) it was 14 mg/kg.
